Laboratory results: patent publication US5792750A, “Materials and method for control of pests” (priority 1997, dated 1998)
No end group written: not given here.

How the values were obtained:
[1] = test system: trypsin-like enzyme biosynthesis in the midgut; experiment: Inhibition of trypsin-like enzyme biosynthesis after injection of peptides into ligated abdomens of blood-fed female mosquitoes; format: in vivo, Aedes aegypti; settings: for biological activity: against Aedes aegypti, compared with TMOF or among the analogs; for ability to inhibit trypsin-like enzyme biosynthesis: ligated abdomens of female A. aegypti, 24 hours after injection
[2] = Stability in solution of mosquito homogenate (including digestive enzymes); format: in vitro ADME; settings: room temperature, two weeks
From the text: The compounds of the subject invention are white powders that are highly soluble in water. They can be synthesized on a commercial peptide synthesizer. […] Thus, these peptides are particularly attractive for the control of mosquitoes and other pests. Another advantage of the penta- and octa-peptides of the subject invention is that they are more rapidly absorbed in the insect gut. […] Thus, the novel peptides display a more rapid action, a decreased chance for insect gut enzymes to proteolyze the peptide, and high activity. The peptides were not affected by 1% trifluoroacetic acid and were routinely purified using this acid on HPLC.

Row | Substance | biological activity [1] | ability to inhibit trypsin-like enzyme biosynthesis [1] | activity after standing in mosquito homogenate [2]
1 | YDPAP [Peptide P1, H2 N--YDPAP--COOH] | even greater activity than the octa-peptideP4 | demonstrated an ability to inhibit trypsin-like enzyme biosynthesis | without loss of activity
2 | YDPAPPPP [Peptide P4, H2 N--YDPAP4 --COOH] | retains biological activity | demonstrated an ability to inhibit trypsin-like enzyme biosynthesis | –
3 | YDPAPPPPPP [TMOF, reference compound] | – | demonstrated an ability to inhibit trypsin-like enzyme biosynthesis | –
